Assay results as given in paper PMC12747932, “Crystal structures of Kif2A complexed with WDR5 reveal the structural plasticity of WIN-S7 sites” (Acta Biochimica et Biophysica Sinica, 2025).

Biological target: T1, human WDR5 (residues 24–334) (Homo sapiens, UniProt P61964)
T1 construct: human WDR5 seven tandem WD-40 domain (residues 24–334); GST (N, cleaved yes); made in house; host or cells: Escherichia coli BL21 (DE3)
Assay: ITC assay of Kif2A peptides titrated into WDR5
Conditions: wild-type WDR5 0.05 mM, peptide approx. 1 mM, 20 mM Tris-HCl, 200 mM NaCl, pH 7.5, 20°C, mean±SD of a minimum of two experiments, N.D. = not detectable binding
Text: The DNA fragment encoding the human WDR5 seven tandem WD-40 domain (residues 24–334) was amplified via PCR from the human brain and bone marrow cDNA library and cloned and inserted into the pGEX-4T1 vector, which was modified to include an N-terminal GST tag and a TEV cleavage site (ENLYFQ/GSHM) (where ‘/’ denotes the cleavage site). The Y191F variant of WDR5 was generated using a MutanBEST kit (TaKaRa, Dalian, China) and verified via DNA sequencing. Proteins were expressed in Escherichia coli BL21 (DE3) cells (Novagen, Darmstadt, Germany) cultured in Luria-Bertani medium at 37°C. Protein expression was induced with 0.2 mM isopropyl β-D-1-thiogalactopyranoside (IPTG) once the optical density at 600 nm (OD600) reached 0.8, and the cultures were shifted to 16°C for incubation for 18 h. The cells were harvested by centrifugation and resuspended in Buffer A (20 mM Tris-HCl, 1 M NaCl, pH 8.0) supplemented with DNase I (10 U) and cOmplete, EDTA-free Protease Inhibitor Cocktail (1 tablet dissolved in 1 mL of sterile water), after which they were lysed by ultrasonication. […]
ITC assays were performed on a Microcal PEAQ-ITC instrument (Malvern Panalytical, Westborough, USA) at 20°C as previously described. Protein concentrations were quantified by measuring the absorbance at 280 nm and diluted to 0.05 mM with Buffer E. Peptides were prepared at approximately 1 mM in the same buffer. […]

KD, dissociation constant: completely abolished binding
Sequence: GSAAARPSQ [Kif2A ^R117A, Kif2A 114–122 peptide with R117A mutation, …]
